# Activity calls are given as the source filed them. The rule behind the calls is not given here.
# Tests used:
# NCI-H460 [1] = assay: Cytotoxicity against human NCI-H460 cells after 48 hrs by sulforhodamine B assay; assay type: functional; settings: NCI-H460, 48 h
# NCI-H322M [2] = assay: Cytotoxicity against human NCI-H322M cells after 48 hrs by sulforhodamine B assay; assay type: functional
# A549 = assay: Cytotoxicity against human A549/ATCC cells after 48 hrs by sulforhodamine B assay; assay type: functional; settings: A549, 48 h
# CCRF-CEM = assay: Cytotoxicity against human CCRF-CEM cells after 48 hrs by sulforhodamine B assay; assay type: functional
# Homo sapiens = species: Homo sapiens; assay: Inhibition of telomerase (unknown origin) at 10 uM TRAP assay
# DU-145 = assay: Cytotoxicity against human DU145 cells at 10 uM after 48 hrs by sulforhodamine B assay relative to control; assay type: functional
# PC-3 = assay: Cytotoxicity against human PC3 cells at 10 uM after 48 hrs by sulforhodamine B assay relative to control; assay type: functional
# UO-31 [3] = assay: Cytotoxicity against human UO31 cells at 10 uM after 48 hrs by sulforhodamine B assay relative to control; assay type: functional
# TK-10 = assay: Cytotoxicity against human TK10 cells at 10 uM after 48 hrs by sulforhodamine B assay relative to control; assay type: functional
# ACHN [4] = assay: Cytotoxicity against human ACHN cells at 10 uM after 48 hrs by sulforhodamine B assay relative to control; assay type: functional
# OVCAR-8 [5] = assay: Cytotoxicity against human OVCAR8 cells at 10 uM after 48 hrs by sulforhodamine B assay relative to control; assay type: functional
# IGROV-1 [6] = assay: Cytotoxicity against human IGROV1 cells at 10 uM after 48 hrs by sulforhodamine B assay relative to control; assay type: functional
# UACC-257 = assay: Cytotoxicity against human UACC257 cells at 10 uM after 48 hrs by sulforhodamine B assay relative to control; assay type: functional
# MDA-MB-435 [7] = assay: Cytotoxicity against human MDA-MB-435 cells at 10 uM after 48 hrs by sulforhodamine B assay relative to control; assay type: functional
# Malme-3M [8] = assay: Cytotoxicity against human MALME-3M cells at 10 uM after 48 hrs by sulforhodamine B assay relative to control; assay type: functional
# LOX IMVI = assay: Cytotoxicity against human LOXIMVI cells at 10 uM after 48 hrs by sulforhodamine B assay relative to control; assay type: functional
# SNB-75 = assay: Cytotoxicity against human SNB75 cells at 10 uM after 48 hrs by sulforhodamine B assay relative to control; assay type: functional
# U-251 [9] = assay: Cytotoxicity against human U251 cells at 10 uM after 48 hrs by sulforhodamine B assay relative to control; assay type: functional
# HCT-15 = assay: Cytotoxicity against human HCT15 cells at 10 uM after 48 hrs by sulforhodamine B assay relative to control; assay type: functional
# HCT-116 = assay: Cytotoxicity against human HCT116 cells at 10 uM after 48 hrs by sulforhodamine B assay relative to control; assay type: functional
# NCI-H522 = assay: Cytotoxicity against human NCI-H522 cells at 10 uM after 48 hrs by sulforhodamine B assay relative to control; assay type: functional
# NCI-H460 [10] = assay: Cytotoxicity against human NCI-H460 cells at 10 uM after 48 hrs by sulforhodamine B assay relative to control; assay type: functional
# NCI-H322M [11] = assay: Cytotoxicity against human NCI-H322M cells at 10 uM after 48 hrs by sulforhodamine B assay relative to control; assay type: functional
# [12] = Cytotoxicity against human EKVX cells at 10 uM after 48 hrs by sulforhodamine B assay relative to control; assay type: functional
# RPMI-8226 = assay: Cytotoxicity against human RPMI8226 cells at 10 uM after 48 hrs by sulforhodamine B assay relative to control; assay type: functional
# K562 = assay: Cytotoxicity against human K562 cells at 10 uM after 48 hrs by sulforhodamine B assay relative to control; assay type: functional
# MCF7 = assay: Cytotoxicity against human MCF7 cells after 48 hrs by sulforhodamine B assay; assay type: functional; settings: MCF7, 48 h
# UO-31 [13] = assay: Cytotoxicity against human UO31 cells after 48 hrs by sulforhodamine B assay; assay type: functional; settings: UO-31, 48 h
# ACHN [14] = assay: Cytotoxicity against human ACHN cells after 48 hrs by sulforhodamine B assay; assay type: functional
# A498 = assay: Cytotoxicity against human A498 cells after 48 hrs by sulforhodamine B assay; assay type: functional; settings: A498, 48 h
# NCI/ADR-RES = assay: Cytotoxicity against human NCI/ADR-RES cells after 48 hrs by sulforhodamine B assay; assay type: functional
# OVCAR-8 [15] = assay: Cytotoxicity against human OVCAR8 cells after 48 hrs by sulforhodamine B assay; assay type: functional; settings: OVCAR-8, 48 h
# OVCAR-3 = assay: Cytotoxicity against human OVCAR3 cells after 48 hrs by sulforhodamine B assay; assay type: functional; settings: OVCAR-3, 48 h
# IGROV-1 [16] = assay: Cytotoxicity against human IGROV1 cells after 48 hrs by sulforhodamine B assay; assay type: functional; settings: IGROV-1, 48 h
# UACC-62 = assay: Cytotoxicity against human UACC62 cells after 48 hrs by sulforhodamine B assay; assay type: functional; settings: UACC-62, 48 h
# SK-MEL-5 = assay: Cytotoxicity against human SK-MEL-5 cells after 48 hrs by sulforhodamine B assay; assay type: functional; settings: SK-MEL-5, 48 h
# MDA-MB-435 [17] = assay: Cytotoxicity against human MDA-MB-435 cells after 48 hrs by sulforhodamine B assay; assay type: functional; settings: MDA-MB-435, 48 h
# Malme-3M [18] = assay: Cytotoxicity against human MALME-3M cells after 48 hrs by sulforhodamine B assay; assay type: functional
# U-251 [19] = assay: Cytotoxicity against human U251 cells after 48 hrs by sulforhodamine B assay; assay type: functional; settings: U-251, 48 h
# SF-295 = assay: Cytotoxicity against human SF295 cells after 48 hrs by sulforhodamine B assay; assay type: functional; settings: SF-295, 48 h
# SW-620 = assay: Cytotoxicity against human SW620 cells after 48 hrs by sulforhodamine B assay; assay type: functional; settings: SW-620, 48 h
# [20] = read-out: LC50 (the source's name)
compound,measurement,setting,value
CCCCNCC(=O)Nc1ccc2c(c1)C(=O)c1cc(NC(=O)CNCCCC)ccc1-2,GI50,NCI-H460 [1],1.49 µM
same,TGI,NCI-H460 [1],3.35 µM
same,CC50,NCI-H460 [1]; [20],7.53 µM
same,GI50,NCI-H322M [2],2.12 µM
same,TGI,NCI-H322M [2],6.93 µM
same,CC50,NCI-H322M [2]; [20],31.5 µM
same,GI50,A549,1.53 µM
same,TGI,A549,3.37 µM
same,CC50,A549; [20],7.39 µM
same,GI50,CCRF-CEM,1.6 µM
same,TGI,CCRF-CEM,4.02 µM
same,CC50,CCRF-CEM; [20],10.7 µM
same,inhibition,Homo sapiens,inactive
same,Activity,DU-145,35.16%
same,Activity,PC-3,-4.48%
same,Activity,UO-31 [3],-42.01%
same,Activity,TK-10,7.32%
same,Activity,ACHN [4],18.19%
same,Activity,OVCAR-8 [5],9.6%
same,Activity,IGROV-1 [6],46.91%
same,Activity,UACC-257,-84.17%
same,Activity,MDA-MB-435 [7],-58.56%
same,Activity,Malme-3M [8],-68.3%
same,Activity,LOX IMVI,-78.38%
same,Activity,SNB-75,36.53%
same,Activity,U-251 [9],-57.52%
same,Activity,HCT-15,24.17%
same,Activity,HCT-116,-89.71%
same,Activity,NCI-H522,-50.74%
same,Activity,NCI-H460 [10],-27.51%
same,Activity,NCI-H322M [11],-0.61%
same,Activity,[12],58.12%
same,Activity,RPMI-8226,-37.38%
same,Activity,K562,-53.98%
same,GI50,MCF7,2.25 µM
same,TGI,MCF7,8.79 µM
same,CC50,MCF7; [20],4.4 µM
same,GI50,UO-31 [13],2.04 µM
same,TGI,UO-31 [13],5.47 µM
same,CC50,UO-31 [13]; [20],25.2 µM
same,GI50,ACHN [14],1.4 µM
same,TGI,ACHN [14],4.14 µM
same,CC50,ACHN [14]; [20],14.9 µM
same,GI50,A498,1.63 µM
same,TGI,A498,5.36 µM
same,CC50,A498; [20],25.1 µM
same,GI50,NCI/ADR-RES,2.89 µM
same,TGI,NCI/ADR-RES,10.9 µM
same,CC50,NCI/ADR-RES; [20],41.4 µM
same,GI50,OVCAR-8 [15],2.19 µM
same,TGI,OVCAR-8 [15],6.16 µM
same,CC50,OVCAR-8 [15]; [20],28.9 µM
same,GI50,OVCAR-3,1.73 µM
same,TGI,OVCAR-3,3.23 µM
same,CC50,OVCAR-3; [20],6.05 µM
same,GI50,IGROV-1 [16],2.24 µM
same,TGI,IGROV-1 [16],6.53 µM
same,CC50,IGROV-1 [16]; [20],40.6 µM
same,GI50,UACC-62,1.61 µM
same,TGI,UACC-62,3.03 µM
same,CC50,UACC-62; [20],5.69 µM
same,GI50,SK-MEL-5,1.77 µM
same,TGI,SK-MEL-5,3.18 µM
same,CC50,SK-MEL-5; [20],5.71 µM
same,GI50,MDA-MB-435 [17],1.63 µM
same,TGI,MDA-MB-435 [17],3.4 µM
same,CC50,MDA-MB-435 [17]; [20],7.1 µM
same,GI50,Malme-3M [18],1.94 µM
same,TGI,Malme-3M [18],3.98 µM
same,CC50,Malme-3M [18]; [20],8.17 µM
same,GI50,U-251 [19],1.31 µM
same,TGI,U-251 [19],2.65 µM
same,CC50,U-251 [19]; [20],5.34 µM
same,GI50,SF-295,1.67 µM
same,TGI,SF-295,3.47 µM
same,CC50,SF-295; [20],7.2 µM
same,GI50,SW-620,1.25 µM
same,TGI,SW-620,3 µM
same,CC50,SW-620; [20],7.16 µM

# From ChEMBL document CHEMBL2439971, “Design, synthesis and antiproliferative evaluation of fluorenone analogs with DNA topoisomerase I inhibitory properties” (Bioorg Med Chem, 2013)
